Laboratory results: PubChem BioAssay AID1963836 (Molecular Pharmacology Branch, DTP, NCI, 2024)

System: 857933-349-R-J2-PDC complex spheroid viability
Test: Anticancer human tumor 857933-349-R-J2-PDC patient-derived colon adenocarcinoma cell line growth inhibition [POLQ]
Details: for IC50: curve of first compound; for viability, T/C: stronger effect = lower value
Description: Multicellular complex tumor spheroid response to Polymerase (POL) inhibitors (novobiocin, ART-558, RP6685) in combination with a variety of drugs and investigational agents in selected tumor cell lines
The POL inhibitors (novobiocin, ART-558, and RP6685) were evaluated both individually and in combination with standard of care and investigational anticancer small molecules within a complex spheroid model of solid tumors. . Complex spheroids include a stromal component modeled by human endothelial cells (HUVEC) and fibroblasts modeled by human mesenchymal stem cells (MSCs). The concentration ranges selected for each drug and investigational agent were based upon clinically achievable concentrations if the clinical Cmax of the agent was known.
Compounds. The drugs and investigational agents: novobiocin (NSC847541), ART-558 (NSC835418), RP-6685 (NSC848927), peposertib (NSC802822), ceralasertib (NSC780249), elimusertib (NSC800525), camonsertib (NSC841442), AZD-1390 (NSC803789), olaparib (NSC753686), talazoparib (NSC767125), rucaparib (NSC756644), sotorasib (NSC818433), MRTX-1133 (NSC836407), SN-38 (NSC673596), topotecan (NSC609699), epotoside (NSC141540), doxorubicin (NSC123127), gemcitabine (NSC613327), 5-fluorouracil (NSC19893), paclitaxel (NSC125973), vemurafenib (NSC761431), MSA-2 (NSC828583), SN-011 (NSC837082), adavosertib (NSC754352), prexasertib (NSC758257), carboplatin (NSC241240) and oxaliplatin (NSC266046), were obtained from the National Cancer Institute (NCI) Developmental Therapeutics Program Chemical Repository (21). The FDA-approved anticancer drug set is available from the Developmental Therapeutics Program at https://dtp.cancer.gov/organization/dscb/obtaining/. […] The stock solutions were prepared in dimethyl sulfoxide (DMSO, Sigma-Aldrich, St. Louis, MO, cat. D2650), except for the platinum compounds which were prepared in saline (Quality Biological, Gaithersburg, MD, cat. 114-055-101), at 800-fold the tested concentration and stored at -70 degrees C prior to their use. All drugs and investigational agents were tested over a range starting from a high concentration at or near the clinical Cmax and decreasing in half-log increments. If the clinical Cmax for an agent had not been determined, the highest concentration tested was 10 microM, except for SN-38, which was tested at a high concentration of 1 microM.
Cell Culture. All cells were maintained in an incubator at 37 degrees C and 5% CO2 with 95% humidity. The PDC lines were cultured according to standard operating procedures established by the NCI PDMR (https://pdmr.cancer.gov). Table 3 of the manuscript, lists the cell lines along with the number of the three cell types plated to form the mct-spheroids and media for tumor cell growth. After thawing, all PDC lines, except 997537-175-T-J1-PDC and 415267-285-R-J2-PDC, were cultured in Matrigel-coated flasks prepared with a working solution of 1X Ham's F-12 nutrient mix, without supplementation (Thermo Fisher Scientific, cat. 11765054), 100 U/mL penicillin-streptomycin (Thermo Fisher Scientific, cat. 15140122), and 2.5% Matrigel (Corning Inc., Corning, NY, cat. 354248) for the first three passages. The two PDC lines 997537-175-T-J1-PDC and 415267-285-R-J2-PDC were cultured on uncoated flasks. The 857933-349-R-J2-PDC line was cultured in 6C/Colon 1B media containing advanced DMEM/F-12 (Thermo Fisher Scientific, cat. 12634028), 10 mM HEPES (Thermo Fisher Scientific, cat. 15630080), 1X GlutaMAX supplement (Thermo Fisher Scientific, cat. 35050061), 0.1 mg/mL primocin (InvivoGen, San Diego, CA, cat. ant-pm-2), 10% defined fetal bovine serum, heat inactivated (HyClone Laboratories Inc., Logan, UT, cat. SH30070.03HI), 50% L-WRN conditioned media (ATCC, cat. CRL-3276), 1.25 mM N-Acetyl-L-cysteine (Sigma-Aldrich, cat. A9165), 10 mM nicotinamide (Sigma-Aldrich, cat. N0636), 1X B-27 supplement (Thermo Fisher Scientific, cat. 17504044), 1X N-2 supplement (Thermo Fisher Scientific, cat. […]

[1] = second compound 0.0316 µM, first compound 0.0316 µM
[2] = second compound 0.0316 µM, first compound 0.1 µM
[3] = second compound 0.0316 µM, first compound 0.316 µM
[4] = second compound 0.0316 µM, first compound 1 µM
[5] = second compound 0.1 µM, first compound 0.0316 µM
[6] = second compound 0.1 µM, first compound 0.1 µM
[7] = second compound 0.1 µM, first compound 0.316 µM
[8] = second compound 0.1 µM, first compound 1 µM
[9] = second compound 0.316 µM, first compound 0.0316 µM
[10] = second compound 0.316 µM, first compound 0.1 µM
[11] = second compound 0.316 µM, first compound 0.316 µM
[12] = second compound 0.316 µM, first compound 1 µM
[13] = second compound 1 µM, first compound 0.0316 µM
[14] = second compound 1 µM, first compound 0.1 µM
[15] = second compound 1 µM, first compound 0.316 µM
[16] = second compound 1 µM, first compound 1 µM
[17] = second compound 3.16 µM, first compound 0.0316 µM
[18] = second compound 3.16 µM, first compound 0.1 µM
[19] = second compound 3.16 µM, first compound 0.316 µM
[20] = second compound 3.16 µM, first compound 1 µM
[21] = second compound 10 µM, first compound 0.0316 µM
[22] = second compound 10 µM, first compound 0.1 µM
[23] = second compound 10 µM, first compound 0.316 µM
[24] = second compound 10 µM, first compound 1 µM
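Also: spheroids exposed to compounds for seven days before readout.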

Question: What does the source list for `COc1cccc(OCCCN)c1-c1cc(Nc2cnc(C#N)cn2)n[nH]1` + COC1C(OC(N)=O)C(O)C(Oc2ccc3c(O)c(NC(=O)c4ccc(O)c(CC=C(C)C)c4)c(=O)oc3c2C)OC1(C)C?
Answer: IC50 (second compound 0.0316 µM): 89.5 nM; IC50 (second compound 0.1 µM): 66.9 nM; IC50 (second compound 0.316 µM): 155 nM; IC50 (second compound 1 µM): 86.9 nM; IC50 (second compound 3.16 µM): 204 nM; IC50 (second compound 10 µM): 170 nM; viability, T/C (second compound 0.0316 µM, first compound 0.00316 µM): 102%; viability, T/C (second compound 0.0316 µM, first compound 0.01 µM): 75.5%; viability, T/C [1]: 61.3%; viability, T/C [2]: 48.8%; viability, T/C [3]: 44.1%; viability, T/C [4]: 29.9%; viability, T/C (second compound 0.1 µM, first compound 0.00316 µM): 79.5%; viability, T/C (second compound 0.1 µM, first compound 0.01 µM): 113%; viability, T/C [5]: 58.8%; viability, T/C [6]: 51.5%; viability, T/C [7]: 48.9%; viability, T/C [8]: 35.4%; viability, T/C (second compound 0.316 µM, first compound 0.00316 µM): 85.2%; viability, T/C (second compound 0.316 µM, first compound 0.01 µM): 86.1%; viability, T/C [9]: 62.6%; viability, T/C [10]: 53.2%; viability, T/C [11]: 48.5%; viability, T/C [12]: 35.4%; viability, T/C (second compound 1 µM, first compound 0.00316 µM): 95%; viability, T/C (second compound 1 µM, first compound 0.01 µM): 84.2%; viability, T/C [13]: 52.8%; viability, T/C [14]: 51.2%; viability, T/C [15]: 46.5%; viability, T/C [16]: 32.2%; viability, T/C (second compound 3.16 µM, first compound 0.00316 µM): 93.7%; viability, T/C (second compound 3.16 µM, first compound 0.01 µM): 89.1%; viability, T/C [17]: 79.5%; viability, T/C [18]: 56.2%; viability, T/C [19]: 47.5%; viability, T/C [20]: 33.6%; viability, T/C (second compound 10 µM, first compound 0.00316 µM): 88%; viability, T/C (second compound 10 µM, first compound 0.01 µM): 77.7%; viability, T/C [21]: 70.5%; viability, T/C [22]: 54.2%; viability, T/C [23]: 44%; viability, T/C [24]: 31%

Question: What does the source list for `COc1cccc2c1C(=O)c1c(O)c3c(c(O)c1C2=O)CC(O)(C(=O)CO)CC3OC1CC(N)C(O)C(C)O1` (centres undefined) + COC1C(OC(N)=O)C(O)C(Oc2ccc3c(O)c(NC(=O)c4ccc(O)c(CC=C(C)C)c4)c(=O)oc3c2C)OC1(C)C?
Answer: IC50 (second compound 0.0316 µM): 334 nM; IC50 (second compound 0.1 µM): 216 nM; IC50 (second compound 0.316 µM): 326 nM; IC50 (second compound 1 µM): 226 nM; IC50 (second compound 3.16 µM): 320 nM; IC50 (second compound 10 µM): 263 nM; viability, T/C [1]: 73.1%; viability, T/C [2]: 80.2%; viability, T/C [3]: 51.4%; viability, T/C [4]: 8.39%; viability, T/C (second compound 0.0316 µM, first compound 3.16 µM): 0.35%; viability, T/C (second compound 0.0316 µM, first compound 10 µM): 0.47%; viability, T/C [5]: 64.2%; viability, T/C [6]: 70.5%; viability, T/C [7]: 41.3%; viability, T/C [8]: 5.48%; viability, T/C (second compound 0.1 µM, first compound 3.16 µM): 0.39%; viability, T/C (second compound 0.1 µM, first compound 10 µM): 0.29%; viability, T/C [9]: 79.8%; viability, T/C [10]: 76.2%; viability, T/C [11]: 51.3%; viability, T/C [12]: 8.79%; viability, T/C (second compound 0.316 µM, first compound 3.16 µM): 0.37%; viability, T/C (second compound 0.316 µM, first compound 10 µM): 0.44%; viability, T/C [13]: 70.9%; viability, T/C [14]: 58.8%; viability, T/C [15]: 45.6%; viability, T/C [16]: 6.1%; viability, T/C (second compound 1 µM, first compound 3.16 µM): 0.31%; viability, T/C (second compound 1 µM, first compound 10 µM): 0.43%; viability, T/C [17]: 68.3%; viability, T/C [18]: 68.2%; viability, T/C [19]: 50.3%; viability, T/C [20]: 9.54%; viability, T/C (second compound 3.16 µM, first compound 3.16 µM): 0.51%; viability, T/C (second compound 3.16 µM, first compound 10 µM): 0.49%; viability, T/C [21]: 75.1%; viability, T/C [22]: 80.3%; viability, T/C [23]: 43.5%; viability, T/C [24]: 10%; viability, T/C (second compound 10 µM, first compound 3.16 µM): 0.39%; viability, T/C (second compound 10 µM, first compound 10 µM): 0.49%
